Tests used:
[1] = molecular target: T1, Recombinant human glyoxalase I (Homo sapiens, UniProt Q04760); assay: Glyoxalase I inhibition assay (96-well kinetic spectrophotometric assay, 240 nm); format: biochemical; conditions: for IC50: concentration giving 50% of the vehicle control response; for inhibition at 20 µM: 20 μM compound, Vmax relative to control without inhibitor, pH 6.6, 25° C.
T1 construct: made in house; host or cells: E. coli
T1 sequence (Q04760 2-184 limits assumed): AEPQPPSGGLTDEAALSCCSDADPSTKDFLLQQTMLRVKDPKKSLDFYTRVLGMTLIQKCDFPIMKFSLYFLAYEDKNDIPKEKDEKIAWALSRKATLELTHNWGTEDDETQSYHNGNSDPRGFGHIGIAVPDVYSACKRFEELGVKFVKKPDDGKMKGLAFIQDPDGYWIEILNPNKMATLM
Excerpt: Glyoxalase I catalyses the formation of S-D-lactoylglutathione from the hemithioacetal that forms non-enzymatically from methylglyoxal and reduced glutathione (GSH). The standard literature assay is a cuvette-based spectrophotometric method using the product of glyoxalase I, S-D-lactoylglutathione, as the chromophore (240 nm) (Racker, J. Biol. Chem. 190, 685-686 (1951); Principato et al., Biochem International 6, 249-255 (1983)). This literature method was modified for use as a 96-well plate, kinetic assay.
The buffer (0.1M potassium phosphate buffer pH 6.6) and inhibitors are added to appropriate wells of a 96 well plate. Methylglyoxal (prepared in potassium phosphate buffer pH 6.6) and reduced glutathione (prepared in potassium phosphate buffer pH 6.6) are added to appropriate wells. These reagents are incubated for 15 minutes, shaking at room temperature to allow the formation of the hemithioacetal substrate of glyoxalase I. Recombinant human glyoxalase I (expressed in E. coli. and purified by S-hexylglutathione-agarose chromatography as described in Ridderstorm M. and Mannervik B., Biochem J. 314, 463-467 (1996)) is added and the plate is shaken briefly, before being placed in a Spectra Max 190 microplate spectrophotometer (Molecular Devices) at 25° C. Absorbance is monitored at 240 nm, with readings being taken every 30 seconds. The reaction is monitored for 15 minutes and PathCheck® measurements are taken on completion of the assay and the absorbance values normalized to a 1 cm pathlength. The integral software determines the Vmax using the first 20 readings. S-hexylglutathione is used as a positive control in the assays.
Data are expressed as a percentage of the control Vmax, measured in the absence of inhibitor.
Compounds iv, A, ix and E from examples 1 to 4 above respectively were subjected to the above glyoxalase I binding assay at a concentration of 20 μM (20 micromolar). Inhibitory effects are expressed in table 2 as either IC50 values, defined as the concentration, in μM, of the compound that results in 50% of the vehicle control response, or as the percentage of the vehicle control response at the highest concentration of compound tested.

[2] = system: HL60 (human promyelocytic leukaemia) cells; assay: HL60 cell assay (WST-1 growth inhibition); format: cell-based; conditions: for IC50: concentration giving 50% of the vehicle control response; for % proliferation inhibition in HL60s: highest concentration tested (range 20-1.25 μM), mean of six replicates
Protocol: HL60 (human promyelocytic leukaemia) cells were seeded (50 μl/well) at a density between 0.25-0.4×10^5/ml in a 96 multi-well plate. Twenty four hours later 50 μl. of the relevant compound dilution made up in culture medium was added to the wells (final concentration range 20-1.25 μM in 0.1% DMSO). After incubating at 37° C. in a 5% CO2 atmosphere for a further 72 hours, assessment of growth inhibitory effects of compounds was measured using a colorimetric assay that is based on the cleavage of the tetrazolium salt WST-1 (Roche) by mitochondrial dehydrogenase in viable cells. WST-1 reagent (10 μl) was added to each well and the plate was agitated for 1 min. After a 3-4 hour incubation at 37° C. in a 5% CO2 incubator the absorbance at 450 nm was read spectrophotometrically, after subtraction of a reference wavelength absorbance, at […].
Compounds iv, ix and E from examples 1, 3 and 4 above respectively were subjected to the above cell assay. Results were the mean of six replicates and were expressed as the percentage of the DMSO vehicle control response. Inhibitory effects are expressed in table 3 in the form of either IC50 values, which was defined as the concentration (μM) of compound that results in 50% of the vehicle control response, or as the % of vehicle control response at the highest concentration of compound tested.

[3] = Homo sapiens, HL-60, 72 hours incubation

| inhibition at 20 µM [1] | Structure (SMILES) | also measured |
| --- | --- | --- |
|  | O=C(O)C(Sc1ccc(CN(O)C(=O)c2ccccc2)cc1)c1ccccc1 (stereo not shown) [A, {4-[(Benzoyl-hydroxy-amino)-methyl]-phenylsulfanyl)-phenyl-acetic acid] | IC50 [1]: 9.7 µM |
| ≥ 30% | N#Cc1c(-c2ccc(Cl)cc2)cc(-c2cccs2)nc1SC(C(=O)O)c1ccccc1 (stereo not shown) [Compound 1] |  |
| ≥ 30% | COc1ccc(-c2cc(-c3ccccc3)nc(SC(C(=O)O)c3ccccc3)c2C#N)cc1 (stereo not shown) [Compound 2] |  |
| ≥ 30% | O=C(CSc1ccccc1C(=O)O)c1ccc(-c2ccccc2)cc1 [Compound 3, 2-(2-Biphenyl-4-yl-2-oxo-ethylsulfanyl)-benzoic acid] |  |
| ≥ 30% | COc1ccc(-c2cc(-c3ccccc3)nc(SCc3ccccc3C(=O)O)c2C#N)cc1 [Compound 4] |  |
| ≥ 30% | Cc1ccc(-c2cc(-c3ccccc3)c(C#N)c(SCC(=O)Nc3ccc(C(=O)O)cc3)n2)cc1 [Compound 9] |  |
| ≥ 30% | COc1ccc(-c2cc(-c3cccs3)nc(SC(C(=O)O)c3ccccc3)c2C#N)cc1 (stereo not shown) [Compound 11] |  |
| ≥ 30% | N#Cc1c(-c2cccs2)cc(-c2cccs2)nc1SC(C(=O)O)c1ccccc1 (stereo not shown) [Compound 13] |  |
| ≥ 30% | N#Cc1c(-c2ccccc2)cc(-c2cccs2)nc1SC(C(=O)O)c1ccccc1 (stereo not shown) [Compound 14] |  |
| ≥ 30% | CC(C)C(Sc1nc(-c2ccccc2)cc(-c2ccccc2)c1C#N)C(=O)O (stereo not shown) [Compound 25] |  |
| 0% | COC(=O)c1ccccc1CSc1ccc(CN(O)C(=O)c2ccccc2)cc1 [Compound ix, 2-{4-[(Benzoyl-hydroxy-amino)-methyl]-phenylsulfanylmethyl}-benzoic acid methyl ester] | IC50 [2, 3]: 15 µM |
|  | O=C(O)c1ccccc1CSc1ccc(CN(O)C(=O)c2ccccc2)cc1 [E, 2-{4-[(Benzoyl-hydroxy-amino)-methyl]-phenylsulfanylmethyl}-benzoic acid] | IC50 [1]: 1.9 to 2.26 µM; % proliferation inhibition in HL60s ([2]; 72 hours incubation): 4% |
|  | CCOC(=O)c1ccccc1SCC(=O)c1ccc(-c2ccccc2)cc1 [ethyl ester of compound 3] | IC50 ([2]; 72 hours incubation): 7.5 µM; % proliferation inhibition in HL60s ([2]; 72 hours incubation): 72% |
| 28.5% | CCOC(=O)C(Sc1ccc(CN(O)C(=O)c2ccccc2)cc1)c1ccccc1 (stereo not shown) [iv, {4-[(Benzoyl-hydroxy-amino)-methyl]-phenylsulfanyl}-phenyl-acetic acid ethyl ester] | IC50 [2, 3]: 8.3 µM; % proliferation inhibition in HL60s ([2]; 72 hours incubation): 80% |

— patent US20070015799A1, “Glyoxalase inhibitors” (priority 2003, published 2007)
